Data published in patent US20220354894A1, “Cell Composition Comprising Radiolabled Mesenchymal Stem Cells, Use Thereof and Method for Preparing Radiolabeled Mesenchymal Stem Cells” (Boehringer Ingelheim Veterinary Medicine Belgium, priority 2019, published 2022).

Test: Whole body scintigraphy biodistribution after IV, IM, SC injection in dogs (Example 4)
Format: in vivo
Settings: dog
Procedure: Three different studies were performed. In a first study, the biodistribution of intravenously administrated equine peripheral blood-derived MSCs (ePB-MSCs) was evaluated in four dogs. In the second study, the biodistribution of intramuscularly and subcutaneously administrated ePB-MSCs was evaluated in four dogs. Finally, in a third study, the biodistribution of a higher dose of ePB-MSCs following intravenous administration was evaluated in three dogs.
Four healthy adult research dogs were included in the two first studies; three dogs from the second study were re-used for the third study. All dogs were purpose bred adult beagles (16-23 months). Two males and two females were included in the first two studies and one male and two female dogs were included in the third study. The dogs were housed in groups of 2, in a pen of 4 by 4 by 2 m (L×W×H) so permanent visual, olfactorial, tactile and auditive contact between dogs was possible. Toys were provided for the dogs to play with in their pen. Cleaning of the dog pens was performed daily. The floor was covered with wood shavings to improve lying comfort for the dogs. The animals were let out in dog runs to play and run for minimal 1 hour a day. After the study this minimal time was increased depending on the need of the dogs.
In the first study, each dog received two intravenous injections; first the dogs were injected with the control product: freshly eluted ^99mTc dissolved in DMEM and at least 7 days later they received a second injection with ^99mTc-labeled ePB-MSCs. For the second study, 4 injections were administered to each dog. The dogs first received an IM injection with the control product, next a SC with the control product, then an IM injection with the ^99mTc-labeled ePB-MSCs and finally a SC administration of the ^99mTc-labeled ePB-MSCs. At least 7 days separated each injection. In the third study, the three dogs received a single IV injection with ^99mTc-labeled ePB-MSCs.
The dogs were put under general anesthesia and positioned in sternal recumbency on the gamma camera before each injection. To obtain general anesthesia, the dogs were first sedated with dexmedetomidine (12-25 μg/kg IM), next induction was obtained with propofol (dosage on effect) and anesthesia was maintained with isoflurane 1.2-1.4% (on effect) in 100% oxygen following endotracheal intubation. The intravenous injection was administered through a 22-gauge catheter in one of the cephalic veins, the intramuscular injection was performed in the left quadriceps muscle and the subcutaneous injection was administered at the back of the neck.
A two-headed gamma camera, equipped with low energy high resolution collimators (GCA 7200 A; Toshiba) was used for the scintigraphic investigation. The whole body scan was obtained with the detectors of the SPECT scanner moving simultaneous dorsally and ventrally from head to tail of the dog over 10 minutes. All dogs were kept under general anesthesia during all the acquisitions. For all 3 studies, data collection of the first hour consisted of 6 successive acquisitions of each 10 minutes. The start of the first acquisition was simultaneous with injection of the radioactive compound and the dog remained in the same position for all 6 scans. Next, in the first study, total body scans (each lasting 10 minutes) were performed at 2 h, 4 h, 8 h, 12 h, 24 h and 36 h after placebo control and labeled ePB-MSCs administration using propofol (dosage on effect). For the second and the third study, 6 successive 10 minutes' total body scans performed during the first hour after injection were followed by total body scans (each lasting 10 minutes) at 6 h and 24 h after each injection. For all studies, a syringe with a known amount of radioactivity to calculate % injected dose (ID), was simultaneous scanned with the dog. Care was taken for the dog's re-positioning on the table, to avoid too much spatial deviation on the scans following the first hour scans. […]

[O]=[99Tc](=[O])(=[O])[O-] [control product, ^99mTc Pertechnetate]
percentage of injected dose at injection site (IM, 10 min): 29.49% | percentage of injected dose in bladder (IM, 10 min): 0.13% | percentage of injected dose in heart (IM, 10 min): 0.45% | percentage of injected dose in left salivary gland (IM, 10 min): 0.02% | percentage of injected dose in lung (IM, 10 min): 1.06% | percentage of injected dose in right salivary gland (IM, 10 min): 0.01% | percentage of injected dose in stomach (IM, 10 min): 1.62% | percentage of injected dose in thyroid (IM, 10 min): 0.05% | percentage of injected dose at injection site (IM, 60 min): 3.63% | percentage of injected dose in bladder (IM, 60 min): 3.51% | percentage of injected dose in heart (IM, 60 min): 2.46% | percentage of injected dose in left salivary gland (IM, 60 min): 1.03% | percentage of injected dose in lung (IM, 60 min): 6.92% | percentage of injected dose in right salivary gland (IM, 60 min): 0.99% | percentage of injected dose in stomach (IM, 60 min): 17.36% | percentage of injected dose in thyroid (IM, 60 min): 1.10% | percentage of injected dose at injection site (IM, 6 hours): 0.19% | percentage of injected dose in bladder (IM, 6 hours): 4.77% | percentage of injected dose in heart (IM, 6 hours): 1.45% | percentage of injected dose in left salivary gland (IM, 6 hours): 1.84% | percentage of injected dose in lung (IM, 6 hours): 4.41% | percentage of injected dose in right salivary gland (IM, 6 hours): 1.60% | percentage of injected dose in stomach (IM, 6 hours): 17.25% | percentage of injected dose in thyroid (IM, 6 hours): 1.15% | percentage of injected dose at injection site (IM, 24 hours): 0.12% | percentage of injected dose in bladder (IM, 24 hours): 5.08% | percentage of injected dose in heart (IM, 24 hours): 0.69% | percentage of injected dose in left salivary gland (IM, 24 hours): 2.47% | percentage of injected dose in lung (IM, 24 hours): 2.14% | percentage of injected dose in right salivary gland (IM, 24 hours): 2.09% | percentage of injected dose in stomach (IM, 24 hours): 9.36% | percentage of injected dose in thyroid (IM, 24 hours): 0.57% | percentage of injected dose in bladder (IV, 10 min): 0.63% | percentage of injected dose in heart (IV, 10 min): 2.79% | percentage of injected dose in left salivary gland (IV, 10 min): 0.33% | percentage of injected dose in liver (IV, 10 min): 2.93% | percentage of injected dose in lung (IV, 10 min): 3.73% | percentage of injected dose in right salivary gland (IV, 10 min): 0.33% | percentage of injected dose in stomach (IV, 10 min): 4.84% | percentage of injected dose in thyroid (IV, 10 min): 0.41% | percentage of injected dose in bladder (IV, 60 min): 1.93% | percentage of injected dose in heart (IV, 60 min): 1.61% | percentage of injected dose in left salivary gland (IV, 60 min): 0.77% | percentage of injected dose in liver (IV, 60 min): 2.07% | percentage of injected dose in lung (IV, 60 min): 2.62% | percentage of injected dose in right salivary gland (IV, 60 min): 0.72% | percentage of injected dose in stomach (IV, 60 min): 9.77% | percentage of injected dose in thyroid (IV, 60 min): 0.61% | percentage of injected dose in bladder (IV, 6 hours): 2.42% | percentage of injected dose in heart (IV, 6 hours): 1.45% | percentage of injected dose in left salivary gland (IV, 6 hours): 1.31% | percentage of injected dose in liver (IV, 6 hours): 1.73% | percentage of injected dose in lung (IV, 6 hours): 1.97% | percentage of injected dose in right salivary gland (IV, 6 hours): 0.88% | percentage of injected dose in stomach (IV, 6 hours): 8.98% | percentage of injected dose in thyroid (IV, 6 hours): 0.61% | percentage of injected dose in bladder (IV, 24 hours): 2.71% | percentage of injected dose in heart (IV, 24 hours): 0.54% | percentage of injected dose in left salivary gland (IV, 24 hours): 1.34% | percentage of injected dose in liver (IV, 24 hours): 0.99% | percentage of injected dose in lung (IV, 24 hours): 0.77% | percentage of injected dose in right salivary gland (IV, 24 hours): 0.98% | percentage of injected dose in stomach (IV, 24 hours): 5.02% | percentage of injected dose in thyroid (IV, 24 hours): 0.24% | percentage of injected dose at injection site (SC, 10 min): 27.27% | percentage of injected dose in bladder (SC, 10 min): 0.13% | percentage of injected dose in heart (SC, 10 min): 0.24% | percentage of injected dose in left salivary gland (SC, 10 min): 0.12% | percentage of injected dose in lung (SC, 10 min): 0.92% | percentage of injected dose in right salivary gland (SC, 10 min): 0.13% | percentage of injected dose in stomach (SC, 10 min): 0.53% | percentage of injected dose in thyroid (SC, 10 min): 0.00% | percentage of injected dose at injection site (SC, 60 min): 17.57% | percentage of injected dose in bladder (SC, 60 min): 2.29% | percentage of injected dose in heart (SC, 60 min): 1.61% | percentage of injected dose in left salivary gland (SC, 60 min): 0.45% | percentage of injected dose in lung (SC, 60 min): 4.86% | percentage of injected dose in right salivary gland (SC, 60 min): 0.45% | percentage of injected dose in stomach (SC, 60 min): 9.24% | percentage of injected dose in thyroid (SC, 60 min): 0.00% | percentage of injected dose at injection site (SC, 6 hours): 0.00% | percentage of injected dose in bladder (SC, 6 hours): 2.75% | percentage of injected dose in heart (SC, 6 hours): 1.61% | percentage of injected dose in left salivary gland (SC, 6 hours): 1.44% | percentage of injected dose in lung (SC, 6 hours): 4.57% | percentage of injected dose in right salivary gland (SC, 6 hours): 1.33% | percentage of injected dose in stomach (SC, 6 hours): 14.37% | percentage of injected dose in thyroid (SC, 6 hours): 0.96% | percentage of injected dose at injection site (SC, 24 hours): 0.00% | percentage of injected dose in bladder (SC, 24 hours): 3.75% | percentage of injected dose in heart (SC, 24 hours): 0.70% | percentage of injected dose in left salivary gland (SC, 24 hours): 2.67% | percentage of injected dose in lung (SC, 24 hours): 2.01% | percentage of injected dose in right salivary gland (SC, 24 hours): 2.81% | percentage of injected dose in stomach (SC, 24 hours): 7.32% | percentage of injected dose in thyroid (SC, 24 hours): 0.61% | organ with the highest uptake (all three injection routes, progressive increase until 4 to 6 hours): stomach | organs with radioactivity uptake (intramuscular and subcutaneous administration): heart, lung, stomach, bladder, thyroid and salivary glands | organs in which radioactivity accumulated (intravenous injection): heart, lung, liver, stomach, bladder, thyroid and salivary glands
